Assay results: ChEMBL document CHEMBL1131986, “Structure-activity relationships of biphenyl tetrazoles as metallo-beta-lactamase inhibitors” (Bioorg Med Chem Lett, 1999)

Key:
Dipeptidase 1 = target: T1, Dipeptidase 1 (Sus scrofa, UniProt P22412); experiment: In vitro apparent inhibition constant of porcine renal Dehydropeptidase-1.; settings: read-out: Ki app
T1 sequence (P22412 whole entry): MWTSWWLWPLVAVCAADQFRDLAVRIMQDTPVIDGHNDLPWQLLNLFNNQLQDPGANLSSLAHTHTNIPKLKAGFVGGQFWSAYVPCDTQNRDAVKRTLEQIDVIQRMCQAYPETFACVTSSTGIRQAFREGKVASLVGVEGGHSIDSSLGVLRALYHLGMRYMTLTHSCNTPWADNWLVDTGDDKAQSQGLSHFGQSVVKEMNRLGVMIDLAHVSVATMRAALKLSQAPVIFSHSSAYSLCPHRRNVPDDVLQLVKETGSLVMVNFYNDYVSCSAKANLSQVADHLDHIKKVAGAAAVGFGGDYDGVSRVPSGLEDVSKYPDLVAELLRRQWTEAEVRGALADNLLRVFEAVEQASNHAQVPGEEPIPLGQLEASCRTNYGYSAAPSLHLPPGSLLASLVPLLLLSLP

[1] = target: Metallo-beta-lactamase type 2 (Bacteroides fragilis, UniProt P25910); experiment: Inhibition of metallo-beta-lactamase (MBL) from Bacteroides fragilis.
Beta-lactamase = Beta-lactamase (Pseudomonas aeruginosa, UniProt Q79MP6); experiment: Inhibition of metallo-beta-lactamase (MBL) from Pseudomonas aeruginosa mediated by the plasmid-borne IMP-1 enzyme.
Sequence of Beta-lactamase (Q79MP6 whole entry): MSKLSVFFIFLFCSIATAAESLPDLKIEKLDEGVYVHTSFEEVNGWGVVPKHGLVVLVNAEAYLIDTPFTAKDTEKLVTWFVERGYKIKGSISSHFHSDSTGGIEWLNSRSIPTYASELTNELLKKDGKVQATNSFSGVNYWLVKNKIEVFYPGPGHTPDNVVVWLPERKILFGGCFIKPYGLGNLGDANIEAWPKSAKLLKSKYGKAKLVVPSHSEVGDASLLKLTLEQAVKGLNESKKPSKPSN

Sequence of Metallo-beta-lactamase type 2 (P25910 whole entry): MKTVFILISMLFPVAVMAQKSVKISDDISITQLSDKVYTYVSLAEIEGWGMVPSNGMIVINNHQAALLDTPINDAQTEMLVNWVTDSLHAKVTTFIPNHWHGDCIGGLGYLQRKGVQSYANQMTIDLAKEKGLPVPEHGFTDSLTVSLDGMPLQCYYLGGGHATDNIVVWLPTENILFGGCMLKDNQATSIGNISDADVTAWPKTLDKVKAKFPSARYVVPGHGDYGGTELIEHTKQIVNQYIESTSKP

CCCCc1nn(-c2cc(Cl)ccc2Cl)c(C(=O)O)c1Cc1ccc(-c2ccccc2-c2nnn[nH]2)cc1
Ki (Dipeptidase 1): 380 µM
IC50 [1]: 50 µM
IC50 (Beta-lactamase): > 200 µM

CCCCc1nn(-c2ccccc2[N+](=O)[O-])c(C(=O)OCC)c1Cc1ccc(-c2ccccc2-c2nnn[nH]2)cc1
IC50 [1]: 18 µM
IC50 (Beta-lactamase): > 200 µM

CCCCc1nn(-c2ccc(Cl)cc2Cl)c(C(=O)OCC)c1Cc1ccc(-c2ccccc2-c2nnn[nH]2)cc1
Ki (Dipeptidase 1): 480 µM
IC50 [1]: 100 µM
IC50 (Beta-lactamase): 66 µM

CCCCc1nn(-c2ccccc2C(F)(F)F)c(C(=O)OCC)c1Cc1ccc(-c2ccccc2-c2nnn[nH]2)cc1
IC50 [1]: 22 µM
IC50 (Beta-lactamase): > 200 µM

CCCCc1nn(-c2ccccc2)c(C(=O)O)c1Cc1ccc(-c2ccccc2-c2nn[nH]n2)cc1
Ki (Dipeptidase 1): 590 µM
IC50 [1]: 200 µM
IC50 (Beta-lactamase): > 200 µM

CCCCc1nn(-c2c(Cl)cc(Cl)cc2Cl)c(C(=O)OCC)c1Cc1ccc(-c2ccccc2-c2nn[nH]n2)cc1
Ki (Dipeptidase 1): 450 µM
IC50 [1]: 80 µM
IC50 (Beta-lactamase): > 200 µM

CCCCc1nn(-c2ccccc2)c(C(=O)OCC)c1Cc1ccc(-c2ccccc2-c2nnn[nH]2)cc1
Ki (Dipeptidase 1): 250 µM
IC50 [1]: 100 µM
IC50 (Beta-lactamase): > 200 µM

CCCCc1nn(-c2cc(Cl)ccc2Cl)c(C(=O)OCC)c1Cc1ccc(-c2ccccc2-c2nn[nH]n2)cc1
Ki (Dipeptidase 1): 80 µM
IC50 [1]: 100 µM
IC50 (Beta-lactamase): 60 µM

CCCCc1nn(-c2c(Cl)cccc2Cl)c(C(=O)O)c1Cc1ccc(-c2ccccc2-c2nnn[nH]2)cc1
Ki (Dipeptidase 1): 500 µM
IC50 [1]: 100 µM
IC50 (Beta-lactamase): > 200 µM

CCCCc1nn(-c2cccc(Cl)c2)c(C(=O)O)c1Cc1ccc(-c2ccccc2-c2nn[nH]n2)cc1
Ki (Dipeptidase 1): 425 µM
IC50 [1]: 190 µM
IC50 (Beta-lactamase): > 200 µM

CCCCc1nn(-c2ccccc2-c2ccccc2)c(C(=O)OCC)c1Cc1ccc(-c2ccccc2-c2nn[nH]n2)cc1
IC50 [1]: > 200 µM
IC50 (Beta-lactamase): 150 µM

CCCCc1nn(-c2cccc(Cl)c2Cl)c(C(=O)OCC)c1Cc1ccc(-c2ccccc2-c2nnn[nH]2)cc1
Ki (Dipeptidase 1): 170 µM
IC50 [1]: 100 µM
IC50 (Beta-lactamase): 175 µM

CCCCc1nn(-c2ccccc2C)c(C(=O)O)c1Cc1ccc(-c2ccccc2-c2nn[nH]n2)cc1
Ki (Dipeptidase 1): 470 µM
IC50 [1]: 80 µM
IC50 (Beta-lactamase): > 200 µM

CCCCc1nn(-c2c(Cl)cc(Cl)cc2Cl)c(C(=O)O)c1Cc1ccc(-c2ccccc2-c2nnn[nH]2)cc1
Ki (Dipeptidase 1): 800 µM
IC50 [1]: 33 µM
IC50 (Beta-lactamase): > 200 µM

CCCCc1nn(-c2ccc(Cl)cc2)c(C(=O)OCC)c1Cc1ccc(-c2ccccc2-c2nn[nH]n2)cc1
Ki (Dipeptidase 1): 380 µM
IC50 [1]: 290 µM
IC50 (Beta-lactamase): 70 µM

CCCCc1nn(-c2ccc(Cl)cc2Cl)c(C(=O)O)c1Cc1ccc(-c2ccccc2-c2nn[nH]n2)cc1
Ki (Dipeptidase 1): 400 µM
IC50 [1]: 80 µM
IC50 (Beta-lactamase): > 200 µM

CCCCc1nn(-c2ccccc2C(F)(F)F)c(C(=O)O)c1Cc1ccc(-c2ccccc2-c2nnn[nH]2)cc1
Ki (Dipeptidase 1): 380 µM
IC50 [1]: 40 µM
IC50 (Beta-lactamase): > 200 µM

CCCCc1nn(-c2ccccc2Cl)c(C(=O)OCC)c1Cc1ccc(-c2ccccc2-c2nnn[nH]2)cc1
Ki (Dipeptidase 1): 250 µM
IC50 [1]: 170 µM
IC50 (Beta-lactamase): 200 µM

CCCCc1nn(-c2ccccc2Cl)c(C(=O)O)c1Cc1ccc(-c2ccccc2-c2nn[nH]n2)cc1
Ki (Dipeptidase 1): 350 µM
IC50 [1]: 30 µM
IC50 (Beta-lactamase): > 200 µM

CCCCc1nn(-c2cccc(Cl)c2)c(C(=O)OCC)c1Cc1ccc(-c2ccccc2-c2nn[nH]n2)cc1
Ki (Dipeptidase 1): 450 µM
IC50 [1]: 170 µM
IC50 (Beta-lactamase): 76 µM

CCCCc1nn(-c2ccccc2[N+](=O)[O-])c(C(=O)O)c1Cc1ccc(-c2ccccc2-c2nnn[nH]2)cc1
Ki (Dipeptidase 1): 640 µM
IC50 [1]: 120 µM
IC50 (Beta-lactamase): > 200 µM

CCCCc1nn(-c2ccccc2C)c(C(=O)OCC)c1Cc1ccc(-c2ccccc2-c2nn[nH]n2)cc1
IC50 [1]: 70 µM
IC50 (Beta-lactamase): > 200 µM

CCCCc1nn(-c2ccccc2-c2ccccc2)c(C(=O)O)c1Cc1ccc(-c2ccccc2-c2nnn[nH]2)cc1
Ki (Dipeptidase 1): 420 µM
IC50 [1]: 180 µM
IC50 (Beta-lactamase): 65 µM

CCCCc1nn(-c2cccc(Cl)c2Cl)c(C(=O)O)c1Cc1ccc(-c2ccccc2-c2nnn[nH]2)cc1
Ki (Dipeptidase 1): 310 µM
IC50 [1]: 37 µM
IC50 (Beta-lactamase): > 200 µM

CCCCc1nn(-c2ccc(Cl)cc2)c(C(=O)O)c1Cc1ccc(-c2ccccc2-c2nn[nH]n2)cc1
Ki (Dipeptidase 1): 430 µM
IC50 [1]: 230 µM
IC50 (Beta-lactamase): > 200 µM
